Assay results taken from US8686044B2, “Amide derivative, pest control agent containing the amide derivative, and use of the amide derivative” (Mitsui Chemicals Agro, Inc., priority 2008, dated 2014).

What was measured:
Assay type in all cases: in vivo
[1] = test system: Choristoneura magnanima; test: Pesticidal test against Choristoneura magnanima (artificial feed dip); settings: 144 h, 2-stage larvae, examined after 6 days, 25° C., read-out: pesticidal rate; for pest or weed control at 1 ppm: concentration 1 ppm
Protocol: (§1) Pesticidal Test against Choristoneura magnanima A thinly sliced artificial feed was immersed for 30 seconds in a chemical solution in which a test compound had been prepared at a predetermined concentration, and air-dried, and then put into a 7 cm polyethylene cup having a filter paper laid on the bottom thereof, and 2-stage larvae of Choristoneura magnanima were released. They were left to stand in a thermostatic chamber at 25° C., and the numbers of the living pests and the dead pests were examined after 6 days. The test was carried out with five larvae per group in two replicates. Further, the above compound (A) was used as a comparative compound.

[2] = test system: Spodoptera litura; test: Pesticidal test against Spodoptera litura (cabbage leaf dip); settings: foliar, 144 h, 2-stage larvae, examined after 6 days, 25° C., read-out: pesticidal rate; for pest or weed control at 1 ppm: concentration 1 ppm
Procedure, shortened: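 Cabbage leaf pieces dipped 30 seconds in compound solution at a predetermined concentration and air-dried, then offered to second-stage larvae, five per group in two replicates. Held at 25° C. Living and dead larvae counted after 6 days.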

[3] = test system: Laodelphax striatellus; test: Pesticidal test against Laodelphax striatellus (rice seedling spray); settings: 144 h, concentration 100 ppm, 3-stage larvae, examined after 6 days, 25° C., read-out: pesticidal rate
Procedure, shortened: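 Rice seedlings sprayed with 2.5 ml acetone solution of compound at a predetermined concentration, air-dried, then infested with third-stage Laodelphax striatellus larvae in capped water-containing tubes at 25 °C. Living and dead insects counted after 6 days; ten larvae per group, two replicates.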

[4] = test system: Plutella xylostella; test: Pesticidal test against Plutella xylostella (cabbage leaf dip); settings: foliar, 144 h, 2-stage larvae, examined after 6 days, 25° C., read-out: pesticidal rate; for pest or weed control at 1 ppm: concentration 1 ppm
Procedure, shortened: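 Cabbage leaf pieces dipped 30 s in test solution at a predetermined concentration, air-dried, then offered to 2nd-instar larvae, five per group in duplicate. Held at 25° C; living and dead larvae counted after 6 days.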

[5] = test system: Adoxophyes honmai; test: Pesticidal test against Adoxophyes honmai (artificial feed dip); settings: 144 h, 2-stage larvae, examined after 6 days, 25° C., read-out: pesticidal rate; for pest or weed control at 10 ppm: concentration 10 ppm; for pest or weed control at 1 ppm: concentration 1 ppm
Protocol: as §1, with “Adoxophyes honmai” for “Choristoneura magnanima”

[6] = test system: Helicoverpa armigera; test: Pesticidal test against Helicoverpa armigera (cabbage leaf disk dip); settings: foliar, 72 h, 2-stage larvae, examined after 3 days, 25° C., read-out: pesticidal rate; for pest or weed control at 1 ppm: concentration 1 ppm
Protocol: as §1, with “Helicoverpa armigera” for “Choristoneura magnanima”, “cabbage leaf disk” for “thinly sliced artificial feed”, “air-dried. The leaf disk was” for “air-dried, and then”, “6-hole plastic” for “7 cm polyethylene”, “released with one insect being released per hole.” for “released.”, “3” for “6”

[7] = test system: Musca domestica; test: Pesticidal test against Musca domestica (petri dish dry film); settings: 24 h, concentration 100 ppm, female adults, examined after 1 day, 25° C., read-out: pesticidal rate
Protocol: Pesticidal Test against Musca domestica
1 ml of an acetone solution in which a test compound had been prepared at a predetermined concentration was added dropwise to a petri dish having a diameter of 9 cm, and air-dried, and then the female adults of Musca domestica were released and the petri dish was capped. They were left to stand in a thermostatic chamber at 25° C., and the numbers of the living pests and the dead pests were examined after 1 day. The test was carried out with five larvae per group in two replicates.

Row | Compound | pest or weed control at 1 ppm [1] [%] | pest or weed control at 1 ppm [2] [%] | pest or weed control at 100 ppm [3] [%] | pest or weed control at 1 ppm [4] [%] | pest or weed control at 10 ppm [5] [%] | pest or weed control at 1 ppm [5] [%] | pest or weed control at 1 ppm [6] [%] | pest or weed control at 100 ppm [7] [%] | pest or weed control at 10 ppm ([1]; concentration 10 ppm) [%] | pest or weed control at 10 ppm ([2]; concentration 10 ppm) [%] | pest or weed control at 10 ppm ([4]; concentration 10 ppm) [%] | pest or weed control at 10 ppm ([6]; concentration 10 ppm) [%]
1 | CN(C(=O)c1cccc(C#N)c1)c1cccc(C(=O)Nc2c(Br)cc(C(F)(C(F)(F)F)C(F)(F)F)cc2Br)c1F [7-1124] | ≥ 70 | ≥ 70 | ≥ 70 | ≥ 70 | ≥ 70 | – | – | – | – | – | – | –
2 | CN(C(=O)c1cc(C#N)cc(C#N)c1)c1cccc(C(=O)Nc2c(Br)cc(C(F)(C(F)(F)F)C(F)(F)F)cc2C(F)(F)F)c1F [7-1605] | ≥ 70 | ≥ 70 | ≥ 70 | ≥ 70 | – | ≥ 70 | ≥ 70 | – | – | – | – | –
3 | O=C(Nc1cccc(C(=O)Nc2c(Br)cc(C(F)(C(F)(F)F)C(F)(F)F)cc2C(F)(F)F)c1)c1ccc(F)cc1 [6-271] | ≥ 70 | ≥ 70 | ≥ 70 | ≥ 70 | ≥ 70 | – | ≥ 70 | – | – | – | – | –
4 | O=C(Nc1c(Br)cc(C(F)(C(F)(F)F)C(F)(F)C(F)(F)F)cc1C(F)(F)F)c1cccc(NC(=O)c2c(F)cccc2F)c1F (stereo not drawn) [6-1674] | ≥ 70 | ≥ 70 | ≥ 70 | ≥ 70 | – | ≥ 70 | ≥ 70 | – | – | – | – | –
5 | O=C(Nc1c(I)cc(C(F)(C(F)(F)F)C(F)(F)C(F)(F)F)cc1I)c1cccc(NC(=O)c2c(F)cccc2F)c1 (stereo not drawn) [6-80] | ≥ 70 | ≥ 70 | ≥ 70 | ≥ 70 | – | ≥ 70 | ≥ 70 | – | – | – | – | –
6 | O=C(Nc1cccc(C(=O)Nc2c(Br)cc(C(F)(C(F)(F)F)C(F)(F)F)cc2Br)c1F)c1ccccc1 [6-1104] | ≥ 70 | ≥ 70 | ≥ 70 | ≥ 70 | ≥ 70 | – | ≥ 70 | – | – | – | – | –
7 | CN(C(=O)c1ccc(C#N)cc1)c1cccc(C(=O)Nc2c(I)cc(C(F)(C(F)(F)F)C(F)(F)C(F)(F)F)cc2C(F)(F)F)c1 (stereo not drawn) [7-523] | ≥ 70 | ≥ 70 | – | ≥ 70 | ≥ 70 | – | ≥ 70 | – | – | – | – | –
8 | O=C(Nc1cccc(C(=O)Nc2c(Br)cc(C(F)(C(F)(F)F)C(F)(F)C(F)(F)F)cc2Br)c1F)c1ccccc1 (stereo not drawn) [6-1182] | ≥ 70 | ≥ 70 | ≥ 70 | ≥ 70 | – | ≥ 70 | – | – | – | – | – | –
9 | CN(C(=O)c1cccnc1Cl)c1cccc(C(=O)Nc2c(I)cc(C(F)(C(F)(F)F)C(F)(F)C(F)(F)F)cc2I)c1 (stereo not drawn) [7-90] | ≥ 70 | ≥ 70 | ≥ 70 | ≥ 70 | – | – | ≥ 70 | ≥ 70 | – | – | – | –
10 | CN(C(=O)c1ccccc1)c1cccc(C(=O)Nc2c(I)cc(C(F)(C(F)(F)F)C(F)(F)F)cc2I)c1F [7-1260] | ≥ 70 | ≥ 70 | ≥ 70 | ≥ 70 | ≥ 70 | – | – | – | – | – | – | –
11 | COc1cc(C(F)(C(F)(F)F)C(F)(F)F)cc(C)c1NC(=O)c1cccc(N(C)C(=O)c2ccccc2)c1 [compound (A), reference compound] | – | – | – | – | ≤ 50 | – | – | – | ≤ 50 | ≤ 50 | ≤ 50 | ≤ 50
12 | O=C(Nc1cccc(C(=O)Nc2c(Br)cc(C(F)(C(F)(F)F)C(F)(F)C(F)(F)F)cc2C(F)(F)F)c1)c1ccc(F)cc1 (stereo not drawn) [6-349] | ≥ 70 | ≥ 70 | – | ≥ 70 | – | ≥ 70 | ≥ 70 | – | – | – | – | –
